Laboratory results as given in patent publication US10213434B2, “Use of factor Xa inhibitors for regulating glycemia” (VAIOMER, priority 2015, dated 2019).
Read-outs that look alike come from different tables or passages of the source.

Tests used:
[1] = low = typically inferior or equal to 20%, cited from earlier work
mouse model of diabetes = conditions: administered into a mouse model of diabetes; cited from earlier work
HFD mice = assay: Bacterial translocation: 16S rDNA copies in mesenteric adipose tissue of HFD mice; format: in vivo; conditions: Rivaroxaban 0.2, 0.5 and 1 mg/kg oral gavage daily, 4 weeks, vs non-treated HFD mice, FIG. 6
Procedure: To explore whether intestinal FXa inhibition regulates intestinal permeability the inventors have treated HFD mice daily during 4 weeks with 3 different doses of Rivaroxaban by oral gavage. The inventors chose low Rivaroxaban concentrations (0.2, 0.5 and 1 mg/kg) to have an intestinal effect only and avoid systemic anti-coagulation. After 4 weeks of treatment the number of 16S rDNA copies was measured in mesenteric adipose tissue in order to evaluate bacterial translocation.

HFD C57/BL6 mice [2] = assay: Oral glucose tolerance test (OGTT) after 4 weeks of oral treatment in high fat diet mice; format: in vivo
Procedure: FIG. 3: NC or HFD C57/BL6 mice were gavaged daily with saline or one of three doses of Rivaroxaban (1, 2.5 or 5; n=5 per group) for 4 weeks. Graphs show oral glucose tolerance test (OGTT) (1.5 g/kg) after 4 weeks of chronic treatment with Rivaroxaban. NC-NaCl: control C57/BL6 mice fed with normal chow and gavaged with saline for 4 weeks. HFD-NaCl: control C57/BL6 mice fed with high fat diet and gavaged with saline for 4 weeks. HFD-X1 mg/kg: C57/BL6 mice fed with high fat diet and gavaged with 1 mg/kg Rivaroxaban for 4 weeks. HFD-X2.5 mg/kg: C57/BL6 mice fed with high fat diet and gavaged with 2.5 mg/kg Rivaroxaban for 4 weeks. HFD-X5 mg/kg: C57/BL6 mice fed with high fat diet and gavaged with 5 mg/kg Rivaroxaban for 4 weeks.
(§1) FIG. 4: NC or HFD C57/BL6 mice were gavaged daily with saline or one of four doses of Rivaroxaban (1, 2.5 or 5; n=5 per group) for 4 weeks. Histograms show glucose intolerance corresponding index (μM/min) from 30 min to 90 min after glucose administration. NC saline: control C57/BL6 mice fed with normal chow and gavaged with saline for 4 weeks. HFD saline: control C57/BL6 mice fed with high fat diet and gavaged with saline for 4 weeks. HFD+X1: C57/BL6 mice fed with high fat diet and gavaged with 1 mg/kg Rivaroxaban for 4 weeks. HFD+X2.5: C57/BL6 mice fed with high fat diet and gavaged with 2.5 mg/kg Rivaroxaban for 4 weeks. HFD+X5: C57/BL6 mice fed with high fat diet and gavaged with 5 mg/kg Rivaroxaban for 4 weeks. Data were analyzed by either one or two-way ANOVA with Tukey's multiple comparison tests and presented as mean±S.E.M. *P<0.05, **P<0.01, ***P<0.001.
FIG. 5: NC or HFD C57/BL6 mice were gavaged daily with saline or one of […] of Rivaroxaban (1, 2.5 or 5; n=5 per group) for 4 weeks. Histograms show diabetes and glucose intolerance corresponding index (μM/min) from 30 min before to 90 min after glucose administration. NC saline: control C57/BL6 mice fed with normal chow and gavaged with saline for 4 weeks. HFD saline: control C57/BL6 mice fed with high fat diet and gavaged with saline for 4 weeks. […] Data were analyzed by either one or two-way ANOVA with Tukey's multiple comparison tests and presented as mean±S.E.M. *P<0.05, **P<0.01, ***P<0.001. […]
(§2) An Oral Glucose Tolerance Test (OGTT) was performed on 6-hfasted mice. […] Glycemia was measured with a glucometer (Roche Diagnostics) from blood collected at the tail vein 30 min before the glucose […] and 15, 30, 60, 90 and 120 min after the gavage. The glucose tolerance index was calculated by adding the glycemic values from 30 to 90 min after glucose gavage divided by the corresponding duration.
(§3) After 4 weeks of treatment the inventors measured fasting glycaemia and glucose intolerance (FIGS. 7 and 8).

HFD C57/BL6 mice [3] = assay: Fasting glycemia after 4 weeks of oral treatment in high fat diet mice; format: in vivo
Procedure: as §1, with “2:” for “4:”, “three” for “four”, “fasting glycemia” for “glucose intolerance corresponding index (μM/min) from 30 min to 90 min”, “4 weeks of chronic treatment with Rivaroxaban.” for “glucose administration.”, “***P<0.001. […]” for “***P<0.001.”
as §2, §3

CO[C@H]1O[C@H](COS(=O)(=O)O)[C@@H](O[C@@H]2O[C@@H](C(=O)O)[C@@H](O[C@H]3O[C@H](COS(=O)(=O)O)[C@@H](O[C@@H]4O[C@H](C(=O)O)[C@@H](O[C@H]5O[C@H](COS(=O)(=O)O)[C@@H](OC)[C@H](OC)[C@H]5NC(=O)CCCCCNC(=O)CCCC[C@@H]5SC[C@@H]6NC(=O)N[C@@H]65)[C@H](OC)[C@H]4OC)[C@H](OS(=O)(=O)O)[C@H]3OS(=O)(=O)O)[C@H](OC)[C@H]2OC)[C@H](OS(=O)(=O)O)[C@H]1OS(=O)(=O)O [idrabiotaparinux]
oral bioavailability [1]: low oral bioavailability

enoxaparin
oral bioavailability [1]: low oral bioavailability

O=C(NC[C@H]1CN(c2ccc(N3CCOCC3=O)cc2)C(=O)O1)c1ccc(Cl)s1 [Rivaroxaban, rivaroxaban]
antithrombotic effects (mouse model of diabetes): displayed antithrombotic effects | bacterial translocation (number of 16S rDNA copies in mesenteric adipose tissue) (HFD mice): reduce bacterial translocation | glucose intolerance index (30 min to 90 min after glucose administration), HFD-induced increase (HFD C57/BL6 mice [2]; 5 mg/kg Rivaroxaban oral gavage, FIG. 4): reduced | diabetes and glucose intolerance index (30 min before to 90 min after glucose administration) (HFD C57/BL6 mice [2]; 5 mg/kg Rivaroxaban oral gavage, vs HFD saline mice, FIG. 5): significant reduction | blood glucose concentration following oral glucose challenge (OGTT) (HFD C57/BL6 mice [2]; oral Rivaroxaban 1, 2.5 or 5 mg/kg, vs HFD mice gavaged with saline, glucose 1.5 g/kg, FIG. 3): reduced | fasting glycemia (increase induced by high fat diet) (HFD C57/BL6 mice [3]; HFD C57/BL6 mice, Rivaroxaban 1, 2.5 or 5 mg/kg oral gavage, FIG. 2): abolished

COC(=O)[C@H](Cc1cccc(C(=N)N)c1)[C@@H](C)NC(=O)c1ccc(-c2cc[n+]([O-])cc2)cc1 [Otamixaban, otamixaban]
glucose intolerance (OGTT) (HFD C57/BL6 mice [2]; Otamixaban 1 and 5 mg/kg oral gavage, FIG. 8): reduces glucose intolerance | fasting glycaemia (HFD C57/BL6 mice [3]; HFD mice, Otamixaban 1 and 5 mg/kg oral gavage, FIG. 7): reduces fasting glycaemia | oral bioavailability [1]: low bioavailability | oral bioavailability ([1]; listed as otamixaban): low oral bioavailability

CO[C@H]1O[C@H](COS(=O)(=O)O)[C@@H](O[C@@H]2O[C@@H](C(=O)O)[C@@H](O[C@H]3O[C@H](COS(=O)(=O)O)[C@@H](O[C@@H]4O[C@H](C(=O)O)[C@@H](O[C@H]5O[C@H](COS(=O)(=O)O)[C@@H](OC)[C@H](OC)[C@H]5OC)[C@H](OC)[C@H]4OC)[C@H](OS(=O)(=O)O)[C@H]3OS(=O)(=O)O)[C@H](OC)[C@H]2OC)[C@H](OS(=O)(=O)O)[C@H]1OS(=O)(=O)O [idraparinux]
oral bioavailability [1]: low oral bioavailability

CC(=N)N1CC[C@H](Oc2ccc([C@H](Cc3ccc4ccc(C(=N)N)cc4c3)C(=O)O)cc2)C1 [DX-9065]
oral bioavailability [1]: low oral bioavailability
